In brackets after ≈: the same amount, converted by molar mass. Activity calls are given as the source filed them. The rule behind the calls is not given here.

Data set [1] concerns Talaromyces funiculosus. Briefly: Antifungal activity against Penicillium funiculosum ATCC 11797 incubated for 24 hrs by serial dilution method. Type of data set: functional.
For data set [2], the system named is Talaromyces funiculosus. Briefly: Antifungal activity against Penicillium funiculosum ATCC 11797 at 100 ug/ml incubated for 72 hrs by agar disc diffusion assay. Type of data set: functional. Conditions: for zone of inhibition at 100 µg/mL: ATCC 11797, 72 h, read-out: IZ. For orientation: Agar diffusion results depend on both activity and mobility in agar.
The subject of data set [3] is Bacillus subtilis. Briefly: Antibacterial activity against Bacillus subtilis MTCC 10619 incubated for 24 hrs by serial dilution method. Type of data set: functional.
Data set [4] has as its system Escherichia coli. Briefly: Antibacterial activity against Escherichia coli MTCC 443 at 100 ug/ml incubated for 12 hrs by agar disc diffusion assay. Type of data set: functional. Conditions: MTCC 443, 12 h, read-out: IZ.
The nature of data set [5]: Cytotoxicity against mouse NIH/3T3 cells assessed as cell viability at 25 ug/ml after 72 hrs by MTT assay relative to control. Type of data set: cell-based, NIH3T3. Conditions: read-out: Activity. (Tetrazolium dyes change colour on reduction, which living cells bring about.)
Data set [6] deals with Trichoderma reesei. Briefly: Antifungal activity against Trichoderma reesei ATCC 13631 at 100 ug/ml incubated for 72 hrs by agar disc diffusion assay. Type of data set: functional. To be noted: for zone of inhibition at 100 µg/mL: ATCC 13631, 72 h, read-out: IZ.
Data set [7] deals with Fusarium oxysporum. Briefly: Antifungal activity against Fusarium oxysporum ATCC 62506 at 100 ug/ml incubated for 72 hrs by agar disc diffusion assay. Type of data set: functional. Conditions: for zone of inhibition at 100 µg/mL: ATCC 62506, 72 h, read-out: IZ.
The nature of data set [8]: Cytotoxicity against mouse NIH/3T3 cells assessed as cell viability at 50 ug/ml after 72 hrs by MTT assay relative to control. Conditions: read-out: Activity. Type of data set: cell-based, NIH3T3.
In data set [9] the test system is Streptomyces griseus. Briefly: Antibacterial activity against Streptomyces griseus MTCC 4734 incubated for 24 hrs by serial dilution method. Type of data set: functional.
Data set [10] concerns Streptomyces griseus. Briefly: Antibacterial activity against Streptomyces griseus MTCC 4734 at 100 ug/ml incubated for 12 hrs by agar disc diffusion assay. Type of data set: functional. To be noted: for zone of inhibition at 100 µg/mL: MTCC 4734, 12 h, read-out: IZ.
Data set [11] deals with Aspergillus niger. Briefly: Antifungal activity against Aspergillus niger ATCC 9029 incubated for 24 hrs by serial dilution method. Type of data set: functional.
In data set [12] the test system is Staphylococcus aureus. Briefly: Antibacterial activity against Staphylococcus aureus MTCC 3381 incubated for 24 hrs by serial dilution method. Type of data set: functional.
Data set [13] relates to Staphylococcus aureus. Briefly: Antibacterial activity against Staphylococcus aureus MTCC 3381 at 100 ug/ml incubated for 12 hrs by agar disc diffusion assay. Type of data set: functional. Conditions: for zone of inhibition at 100 µg/mL: MTCC 3381, 12 h, read-out: IZ.
The subject of data set [14] is Trichoderma reesei. Briefly: Antifungal activity against Trichoderma reesei ATCC 13631 incubated for 24 hrs by serial dilution method. Type of data set: functional.
The test system of data set [15] is Aspergillus niger. Briefly: Antifungal activity against Aspergillus niger ATCC 9029 at 100 ug/ml incubated for 72 hrs by agar disc diffusion assay. Type of data set: functional. To be noted: for zone of inhibition at 100 µg/mL: ATCC 9029, 72 h, read-out: IZ.
Data set [16] concerns Fusarium oxysporum. Briefly: Antifungal activity against Fusarium oxysporum ATCC 62506 incubated for 24 hrs by serial dilution method. Type of data set: functional.
Data set [17] can be described thus: Cytotoxicity against mouse NIH/3T3 cells assessed as cell viability at 250 ug/ml after 72 hrs by MTT assay relative to control. To be noted: read-out: Activity. Type of data set: cell-based, NIH3T3.
For data set [18], the system named is Bacillus subtilis. Briefly: Antibacterial activity against Bacillus subtilis MTCC 10619 at 100 ug/ml incubated for 12 hrs by agar disc diffusion assay. To be noted: for zone of inhibition at 100 µg/mL: MTCC 10619, 12 h, read-out: IZ. Type of data set: functional.
Data set [19] deals with Escherichia coli. Briefly: Antibacterial activity against Escherichia coli MTCC 443 incubated for 24 hrs by serial dilution method. Type of data set: functional. Conditions: MTCC 443, 24 h.
Data set [20] is described as follows: Cytotoxicity against mouse NIH/3T3 cells assessed as cell viability at 100 ug/ml after 72 hrs by MTT assay relative to control. To be noted: read-out: Activity. Type of data set: cell-based, NIH3T3.
For data set [21], the system named is Bacillus subtilis. Briefly: Potency index, ratio of ampicillin MIC to compound MIC for Bacillus subtilis MTCC 10619 by serial dilution method. Type of data set: functional.
Data set [22] relates to Bacillus subtilis. Briefly: Potency index, ratio of chloramphenicol MIC to compound MIC for Bacillus subtilis MTCC 10619 by serial dilution method. Type of data set: functional.

A word on the MIC: it is the lowest concentration found to suppress growth. As to `O=C1Oc2cc([N+](=O)[O-])ccc2N/C1=C\C(=O)c1cccc2ccccc12`, the MIC in the data set on Talaromyces funiculosus [1] (ATCC 11797, 24 h) stood at 25 mg/L (≈ 69.4 µM); with Staphylococcus aureus [12] (MTCC 3381, 24 h), 100 mg/L (≈ 278 µM); in the data set with Trichoderma reesei [14] (ATCC 13631, 24 h), 25 mg/L (≈ 69.4 µM); in the data set on Fusarium oxysporum [16] (ATCC 62506, 24 h), 25 mg/L (≈ 69.4 µM); in the data set with Escherichia coli [19] it was 12.5 mg/L (≈ 34.7 µM). The zone of inhibition at 100 µg/mL was 20 mm with Talaromyces funiculosus [2]; 26 mm in the data set with Escherichia coli [4]; 18 mm with Trichoderma reesei [6]; 18 mm in the data set with Fusarium oxysporum [7]; 8 mm with Staphylococcus aureus [13]. Also, the MIC result in the data set on Bacillus subtilis [3], with Streptomyces griseus [9] and with Aspergillus niger [11] was “inactive” throughout. For the same compound, the viability at 72 h, 25 ug/ml in [5] amounted to 93.5%. Further, the viability at 72 h, 50 ug/ml in [8] is 88.9%. The “inhibition zone (IZ)” value in the data set on Streptomyces griseus [10], with Aspergillus niger [15] and in the data set on Bacillus subtilis [18] was “inactive” throughout. Further, the viability at 72 h, 250 ug/ml in [17] worked out at 76.3%. The viability at 72 h, 100 ug/ml in data set [20] came to 83%.
`O=C1Oc2ccc([N+](=O)[O-])cc2N/C1=C\C(=O)C1CC1`: the MIC result in the data set with Talaromyces funiculosus [1], with Bacillus subtilis [3] and in the data set on Trichoderma reesei [14] was “inactive” throughout. For the same compound, the “inhibition zone (IZ)” value with Talaromyces funiculosus [2], with Trichoderma reesei [6] and in the data set with Bacillus subtilis [18] was “inactive” in each case. In addition, the zone of inhibition at 100 µg/mL in the data set on Escherichia coli [4] amounted to 14 mm; in the data set with Fusarium oxysporum [7] it was 22 mm; with Streptomyces griseus [10], 22 mm; in the data set with Staphylococcus aureus [13], 6 mm; with Aspergillus niger [15], 6 mm. Besides, the viability at 72 h, 25 ug/ml in [5] was determined as 93.2%. Also, the viability at 72 h, 50 ug/ml in data set [8] worked out at 86%. For the same compound, the MIC against Streptomyces griseus [9] (MTCC 4734, 24 h) is 6.25 mg/L (≈ 22.8 µM); with Aspergillus niger [11] (ATCC 9029, 24 h), 100 mg/L (≈ 365 µM); in the data set on Staphylococcus aureus [12] (MTCC 3381, 24 h), 100 mg/L (≈ 365 µM); with Fusarium oxysporum [16] (ATCC 62506, 24 h), 12.5 mg/L (≈ 45.6 µM); in the data set with Escherichia coli [19], 50 mg/L (≈ 182 µM). In addition, in data set [17], the viability at 72 h, 250 ug/ml was found to be 73.7%. The viability at 72 h, 100 ug/ml in data set [20] came to 79.5%.
Consider `O=C1Oc2ccccc2N/C1=C\C(=O)c1ccc(C2CCCCC2)cc1`, for which the Ratio in the data set on Bacillus subtilis [21] is 4. The MIC against Talaromyces funiculosus [1] (ATCC 11797, 24 h) amounted to 50 mg/L (≈ 144 µM); with Bacillus subtilis [3] (MTCC 10619, 24 h) it was 6.25 mg/L (≈ 18 µM); against Streptomyces griseus [9] (MTCC 4734, 24 h) it was 50 mg/L (≈ 144 µM); in the data set with Aspergillus niger [11] (ATCC 9029, 24 h) it was 50 mg/L (≈ 144 µM); in the data set with Escherichia coli [19], 100 mg/L (≈ 288 µM). The zone of inhibition at 100 µg/mL in the data set with Talaromyces funiculosus [2] worked out at 6 mm; with Escherichia coli [4], 8 mm; in the data set with Streptomyces griseus [10] it was 10 mm; in the data set with Aspergillus niger [15], 6 mm; in the data set with Bacillus subtilis [18] it was 22 mm. The “inhibition zone (IZ)” value in the data set on Trichoderma reesei [6], in the data set with Fusarium oxysporum [7] and in the data set on Staphylococcus aureus [13] was “inactive” each time. The MIC entry in the data set with Staphylococcus aureus [12], with Trichoderma reesei [14] and in the data set with Fusarium oxysporum [16] was “inactive” in each case.
`O=C1Oc2cc([N+](=O)[O-])ccc2N/C1=C\C(=O)c1ccc(C2CCCCC2)cc1`: the values for the Ratio in the data set with Bacillus subtilis [21] and in the data set on Bacillus subtilis [22] were 8 and 2, respectively. Moreover, the MIC with Talaromyces funiculosus [1] (ATCC 11797, 24 h) came out at 100 mg/L (≈ 255 µM); with Bacillus subtilis [3] (MTCC 10619, 24 h), 3.12 mg/L (≈ 7.95 µM); against Streptomyces griseus [9] (MTCC 4734, 24 h) it was 50 mg/L (≈ 127 µM); in the data set with Aspergillus niger [11] (ATCC 9029, 24 h), 100 mg/L (≈ 255 µM); against Staphylococcus aureus [12] (MTCC 3381, 24 h), 12.5 mg/L (≈ 31.9 µM); against Trichoderma reesei [14] (ATCC 13631, 24 h), 25 mg/L (≈ 63.7 µM). For the same compound, the MIC in the data set with Fusarium oxysporum [16] (ATCC 62506, 24 h) was 25 mg/L (≈ 63.7 µM); in the data set on Escherichia coli [19] it was 25 mg/L (≈ 63.7 µM). For the same compound, the zone of inhibition at 100 µg/mL is 14 mm with Talaromyces funiculosus [2]; 18 mm in the data set with Escherichia coli [4]; 12 mm in the data set on Trichoderma reesei [6]; 20 mm in the data set with Fusarium oxysporum [7]; 10 mm with Streptomyces griseus [10]; 14 mm in the data set with Staphylococcus aureus [13]. The zone of inhibition at 100 µg/mL with Aspergillus niger [15] worked out at 8 mm; in the data set on Bacillus subtilis [18], 24 mm. In data set [5], the viability at 72 h, 25 ug/ml came to 97.8%. Also, in [8], the viability at 72 h, 50 ug/ml turned out to be 89%. Besides, in data set [17], the viability at 72 h, 250 ug/ml was determined as 78.3%. Moreover, the viability at 72 h, 100 ug/ml in data set [20] was 84.6%.

The values are drawn from ChEMBL document CHEMBL4219034, “Synthesis, antimicrobial activity, structure-activity relationship and cytotoxic studies of a new series of functionalized (Z)-3-(2-oxo-2-substituted ethylidene)-3,4-dihydro-2H-benzo[b][1,4]oxazin-2-ones” (Bioorg Med Chem Lett, 2017).
